Source: patent US10882859B2, “Kinase inhibitors” (Topivert Pharma Limited, priority 2015, dated 2021)
Converted amounts (≈) assume the structure as drawn. Where two headings read alike, the source gives them in different places.

What was measured:
[1] = system: CD3/IL2 stimulated PBMC cells; test: IFNγ release from CD3/IL2 stimulated PBMC cells; type: cell-based; conditions: Homo sapiens, CD3/IL2 stimulation, 48 h, ELISA
[2] = biological target: TYK2 (Homo sapiens (Human), UniProt P29597); test: KINOMEscan enzyme binding assay (DiscoveRx), TYK2; conditions: read-out: Dissociation Constant TYK2
Chain of TYK2 (P29597 whole entry): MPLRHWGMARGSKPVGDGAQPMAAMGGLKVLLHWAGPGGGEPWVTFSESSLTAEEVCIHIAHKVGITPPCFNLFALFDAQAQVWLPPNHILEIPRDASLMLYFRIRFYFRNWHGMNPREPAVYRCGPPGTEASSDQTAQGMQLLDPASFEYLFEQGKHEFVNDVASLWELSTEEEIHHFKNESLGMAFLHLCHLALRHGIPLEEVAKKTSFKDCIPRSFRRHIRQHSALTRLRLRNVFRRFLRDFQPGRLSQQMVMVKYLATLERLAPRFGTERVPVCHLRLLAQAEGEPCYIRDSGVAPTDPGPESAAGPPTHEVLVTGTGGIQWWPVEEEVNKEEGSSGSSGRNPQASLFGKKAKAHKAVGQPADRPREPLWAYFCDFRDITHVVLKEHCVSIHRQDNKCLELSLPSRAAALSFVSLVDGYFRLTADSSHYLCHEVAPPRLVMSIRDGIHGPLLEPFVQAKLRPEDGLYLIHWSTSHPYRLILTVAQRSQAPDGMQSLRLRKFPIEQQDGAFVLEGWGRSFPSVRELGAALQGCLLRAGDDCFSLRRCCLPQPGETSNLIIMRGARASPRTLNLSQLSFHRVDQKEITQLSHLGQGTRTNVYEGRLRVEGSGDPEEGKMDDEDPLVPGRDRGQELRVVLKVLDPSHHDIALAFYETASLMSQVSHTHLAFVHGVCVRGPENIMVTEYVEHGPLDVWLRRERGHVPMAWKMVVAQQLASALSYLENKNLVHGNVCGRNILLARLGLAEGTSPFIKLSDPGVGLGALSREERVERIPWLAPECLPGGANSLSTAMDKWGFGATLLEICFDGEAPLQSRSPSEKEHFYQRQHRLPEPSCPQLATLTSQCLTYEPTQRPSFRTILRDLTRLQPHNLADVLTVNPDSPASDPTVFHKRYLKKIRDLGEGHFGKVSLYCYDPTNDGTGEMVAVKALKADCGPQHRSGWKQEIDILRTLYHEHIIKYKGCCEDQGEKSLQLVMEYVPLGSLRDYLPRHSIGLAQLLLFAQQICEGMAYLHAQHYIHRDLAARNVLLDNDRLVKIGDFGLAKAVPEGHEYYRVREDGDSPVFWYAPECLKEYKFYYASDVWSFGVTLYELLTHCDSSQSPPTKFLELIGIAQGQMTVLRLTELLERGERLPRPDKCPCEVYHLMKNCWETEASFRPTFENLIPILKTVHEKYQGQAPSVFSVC
Method: (§1) These assays may be conducted by DiscoveRx (formerly Ambit; San Diego, Calif.). The percentage inhibition produced by incubation with a test compound may be calculated relative to the non-inhibited control.

[3] = Systemic pharmacokinetics and total colon tissue distribution after single oral administration; type: in vivo, male C57BL/6 mice; conditions: mice, oral 10 mg/kg; for concentration at 0.5 h / concentration at 1 h / concentration at 2 h / concentration at 4 h / concentration at 6 h / concentration at 8 h / concentration at 12 h / concentration at 24 h: male, C57BL/6, mouse
Method: Studies were conducted by Sai Life Sciences (Hinjewadi, Pune, India) to investigate the systemic pharmacokinetics and total colon tissue distribution of compounds of the invention following a single oral administration in male C57BL/6 mice.
A group of twenty four male mice were administered with a solution of test compound formulated at a dose of 10 mg/10 mL/kg in aqueous hydroxypropyl-β-cyclodextrin (20% w/v in water). Blood samples ([…]) were collected from retro-orbital plexus of each mouse under light isoflurane anaesthesia such that the samples were obtained at 0.5, 1, 2, 4, 6, 8, 12 and 24 hr. The blood samples were collected from a set of three mice at each time point in a labeled micro centrifuge tube containing K2EDTA as anticoagulant. Plasma samples were separated by centrifugation at 4000 rpm for 10 min and stored below −70° C. until bioanalysis. After collection of blood sample, animals were humanely euthanized by carbon dioxide asphyxiation to collect total colon tissues. The colons were flushed with cold PBS (pH7.4) to remove contents. The total colon tissues were homogenized with cold PBS (pH7.4) of twice the weight of colon tissue and stored below −70° C. Total volume was three times the total colon tissue weights. All samples were processed for analysis by protein precipitation using acetonitrile and analyzed with a fit-for-purpose LC-MS/MS method. Pharmacokinetic parameters were calculated using the non-compartmental analysis tool of Phoenix WinNonlin® (Version 6.3).

[4] = system: Jurkat cells; test: Cell cytotoxicity assay (propidium iodide, flow cytometry); type: cell-based, human; conditions: 24 h
Method: 1×10^5 Jurkat cells (immortalised human T lymphocytes) are added to the appropriate number of wells of a 96 well plate in 100 μL of media (RPMI supplemented with 10% foetal bovine serum). 1 μL of DMSO control (final concentration 1.0% v/v) or test compound (final concentration 20, 5 or 1 μg/mL) is added to the wells and incubated at 37° C., 5% CO2. After 24 hours, the plate is centrifuged at 1200 rpm for 3 minutes and the supernatant discarded. Cells are then resuspended in 150 μL (final concentration 7.5 μg/mL) of propidium iodide (PI) in PBS and incubated at 37° C., 5% CO2 for 15 minutes. After 15 minutes, cells are analysed by flow cytometry (BD accuri) using the FL3 window. The % viability is calculated as the % of cells that are PI negative in the test wells normalised to the DMSO control.

[5] = Solubility in fasted-state simulated colonic fluid (FaSSCoF); type: physicochemical; conditions: 25 °C, pH 6.5, fassgf or other biorelevant, thermodynamic from solid, pH 6.5, 25° C.
Method: The solubilities of compounds of the invention in FaSSCoF at pH 6.5 are determined using a modification of a previously-reported procedure (Vertzoni, M., et al. Pharm. Res. 2010, 27, 2187-2196). In place of the bile salt extract employed in the original procedure (which extract is no longer available), the modified procedure uses a mixture of sodium taurochlorate (0.15 g), glycocholic acid (0.15 g), ursodeoxycholic acid (0.05 g), cholic acid (0.05 g), and glycodeoxycholic acid (0.05 g). These five bile acids are ground together with a mortar and pestle to produce a fine white powder that is incorporated into the FaSSCoF, as outlined below.
FaSSCoF medium: Tris(hydroxymethyl)aminomethane (Tris; 0.275 g) and maleic acid (0.44 g) are dissolved in water (35 mL) to give a solution whose pH is adjusted to 6.5 by treatment with 0.5M NaOH (ca. 12 mL). The solution is then made up to 50 mL with water. A portion of this Tris/maleate buffer solution (ca. 25 mL) is added to a 0.5 L round-bottomed flask, before being treated with 0.00565 g of the bile acid mixture described above. Solutions of phosphatidylcholine (0.0111 g) in DCM (0.15 mL) and palmitic acid (0.0013 g) in DCM (0.15 mL) are added, then the organic solvent is evaporated off under reduced pressure at 40° C. until a clear solution, with no perceptible DCM odour, is achieved. The volume of the evaporated solution is adjusted to 50 mL by addition of the remainder of Tris/maleate buffer, then BSA (0.115 g) is added, before being dissolved by gentle agitation.
Solubility Determination: Test compounds are suspended in the pH 6.5 FaSSCoF medium to give a maximum final concentration of 2-10 mg/mL. The suspensions are equilibrated at 25° C. for 24 h, before being filtered through a glass fibre C filter. The filtrates are then diluted as appropriate for injection and quantification by HPLC with reference to a standard. Different volumes of the standard, diluted and undiluted sample solutions are injected and the solubilities are calculated using the peak areas determined by integration of the peak found at the same retention time as the principal peak in the standard injection.

[6] = biological target: JAK3 (Homo sapiens (Human), UniProt P52333); test: KINOMEscan enzyme binding assay (DiscoveRx), JAK3; conditions: read-out: Dissociation Constant JAK3
Chain of JAK3 (P52333 whole entry): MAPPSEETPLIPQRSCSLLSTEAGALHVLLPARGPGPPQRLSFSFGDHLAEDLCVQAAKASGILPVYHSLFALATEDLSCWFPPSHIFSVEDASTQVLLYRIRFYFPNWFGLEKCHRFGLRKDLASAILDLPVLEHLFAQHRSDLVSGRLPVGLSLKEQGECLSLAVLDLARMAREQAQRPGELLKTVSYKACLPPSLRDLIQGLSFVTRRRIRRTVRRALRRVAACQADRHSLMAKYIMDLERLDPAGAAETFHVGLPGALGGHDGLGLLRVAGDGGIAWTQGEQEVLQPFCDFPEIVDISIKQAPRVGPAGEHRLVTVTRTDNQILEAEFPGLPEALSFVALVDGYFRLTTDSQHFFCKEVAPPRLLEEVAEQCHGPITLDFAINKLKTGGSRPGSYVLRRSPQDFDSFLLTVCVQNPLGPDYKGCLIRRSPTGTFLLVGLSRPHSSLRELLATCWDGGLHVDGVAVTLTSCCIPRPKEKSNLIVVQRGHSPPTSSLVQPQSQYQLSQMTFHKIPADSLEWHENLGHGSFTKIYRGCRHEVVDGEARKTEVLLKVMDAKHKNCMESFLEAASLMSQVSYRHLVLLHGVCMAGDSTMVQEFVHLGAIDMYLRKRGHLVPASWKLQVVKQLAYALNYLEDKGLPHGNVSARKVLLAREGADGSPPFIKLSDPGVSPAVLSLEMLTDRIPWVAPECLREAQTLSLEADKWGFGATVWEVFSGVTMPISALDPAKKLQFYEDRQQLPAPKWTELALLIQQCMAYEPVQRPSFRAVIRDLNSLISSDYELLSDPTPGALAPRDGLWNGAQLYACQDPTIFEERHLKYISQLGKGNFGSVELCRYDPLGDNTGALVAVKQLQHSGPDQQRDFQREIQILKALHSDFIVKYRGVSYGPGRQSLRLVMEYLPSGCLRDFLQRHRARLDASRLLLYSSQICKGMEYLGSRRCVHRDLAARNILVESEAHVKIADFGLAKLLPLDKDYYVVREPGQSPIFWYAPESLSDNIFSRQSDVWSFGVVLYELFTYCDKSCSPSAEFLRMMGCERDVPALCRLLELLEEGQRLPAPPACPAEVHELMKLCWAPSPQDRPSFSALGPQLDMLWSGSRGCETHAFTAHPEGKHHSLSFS
Method: as §1

[7] = biological target: JAK1 (Homo sapiens (Human), UniProt P23458); test: KINOMEscan enzyme binding assay (DiscoveRx), JAK1; conditions: read-out: Dissociation Constant JAK1
Chain of JAK1 (P23458 whole entry): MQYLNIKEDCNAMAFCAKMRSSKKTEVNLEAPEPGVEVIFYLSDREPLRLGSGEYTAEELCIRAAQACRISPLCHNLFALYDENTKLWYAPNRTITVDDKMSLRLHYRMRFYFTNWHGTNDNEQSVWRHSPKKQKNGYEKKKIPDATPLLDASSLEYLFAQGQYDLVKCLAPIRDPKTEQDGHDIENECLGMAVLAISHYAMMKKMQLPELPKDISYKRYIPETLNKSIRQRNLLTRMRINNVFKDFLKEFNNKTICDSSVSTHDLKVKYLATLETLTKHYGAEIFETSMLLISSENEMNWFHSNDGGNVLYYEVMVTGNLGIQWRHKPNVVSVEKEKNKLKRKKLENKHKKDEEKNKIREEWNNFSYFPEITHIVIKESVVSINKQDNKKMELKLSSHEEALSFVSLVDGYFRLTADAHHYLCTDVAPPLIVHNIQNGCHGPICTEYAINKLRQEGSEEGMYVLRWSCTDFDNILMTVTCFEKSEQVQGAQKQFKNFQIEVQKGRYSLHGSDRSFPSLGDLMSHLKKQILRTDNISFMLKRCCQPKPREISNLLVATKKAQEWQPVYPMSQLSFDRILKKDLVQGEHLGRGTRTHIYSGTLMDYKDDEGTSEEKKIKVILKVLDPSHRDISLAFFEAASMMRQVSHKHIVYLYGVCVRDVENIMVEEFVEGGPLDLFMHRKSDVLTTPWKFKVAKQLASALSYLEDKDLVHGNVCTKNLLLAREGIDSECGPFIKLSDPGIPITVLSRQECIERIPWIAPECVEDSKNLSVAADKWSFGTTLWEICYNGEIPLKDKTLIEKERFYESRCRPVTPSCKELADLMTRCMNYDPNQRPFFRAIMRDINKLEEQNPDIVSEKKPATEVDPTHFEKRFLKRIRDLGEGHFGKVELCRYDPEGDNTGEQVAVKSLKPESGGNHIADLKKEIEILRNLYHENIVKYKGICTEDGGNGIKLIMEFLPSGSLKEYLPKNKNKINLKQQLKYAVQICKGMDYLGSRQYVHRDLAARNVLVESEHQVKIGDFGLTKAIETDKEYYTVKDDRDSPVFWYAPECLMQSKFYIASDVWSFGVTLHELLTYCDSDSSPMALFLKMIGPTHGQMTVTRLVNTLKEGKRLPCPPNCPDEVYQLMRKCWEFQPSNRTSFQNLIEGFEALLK
Method: as §1

[8] = biological target: JAK2 (Homo sapiens (Human), UniProt O60674); test: KINOMEscan enzyme binding assay (DiscoveRx), JAK2; conditions: read-out: Dissociation Constant JAK2
Chain of JAK2 (O60674 whole entry): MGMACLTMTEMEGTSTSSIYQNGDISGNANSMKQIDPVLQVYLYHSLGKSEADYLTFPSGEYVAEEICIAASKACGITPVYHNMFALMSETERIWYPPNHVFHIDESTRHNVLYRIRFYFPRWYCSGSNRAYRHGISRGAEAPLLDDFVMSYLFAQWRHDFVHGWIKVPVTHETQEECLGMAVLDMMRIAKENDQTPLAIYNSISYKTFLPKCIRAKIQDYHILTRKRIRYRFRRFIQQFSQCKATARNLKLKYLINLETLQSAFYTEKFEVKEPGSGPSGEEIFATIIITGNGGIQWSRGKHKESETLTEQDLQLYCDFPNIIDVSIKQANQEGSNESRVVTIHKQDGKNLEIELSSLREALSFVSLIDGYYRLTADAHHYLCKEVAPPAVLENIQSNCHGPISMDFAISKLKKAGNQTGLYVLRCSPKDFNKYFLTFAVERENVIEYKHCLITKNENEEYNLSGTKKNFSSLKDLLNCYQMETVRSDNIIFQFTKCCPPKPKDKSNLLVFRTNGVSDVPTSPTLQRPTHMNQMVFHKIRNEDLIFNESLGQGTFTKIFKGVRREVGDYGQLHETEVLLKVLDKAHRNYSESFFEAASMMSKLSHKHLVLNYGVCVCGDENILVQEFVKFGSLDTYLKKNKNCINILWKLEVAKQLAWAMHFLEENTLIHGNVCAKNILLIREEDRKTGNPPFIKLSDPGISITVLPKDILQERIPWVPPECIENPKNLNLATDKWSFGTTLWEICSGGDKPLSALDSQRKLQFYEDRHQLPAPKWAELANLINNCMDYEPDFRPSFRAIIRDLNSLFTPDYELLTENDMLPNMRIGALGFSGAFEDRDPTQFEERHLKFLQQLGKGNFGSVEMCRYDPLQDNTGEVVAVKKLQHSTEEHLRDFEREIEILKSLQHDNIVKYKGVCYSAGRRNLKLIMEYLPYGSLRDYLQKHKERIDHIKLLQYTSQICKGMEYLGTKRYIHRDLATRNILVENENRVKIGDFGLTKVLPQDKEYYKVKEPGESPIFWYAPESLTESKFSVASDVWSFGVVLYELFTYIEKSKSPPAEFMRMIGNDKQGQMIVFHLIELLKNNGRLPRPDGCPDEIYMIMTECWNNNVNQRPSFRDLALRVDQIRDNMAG
Method: as §1

[9] = total colon tissue, total colon, read-out: Mean total colon level
[10] = plasma, read-out: Mean plasma concentration

Kd [2]: 0.11 nM | concentration at 0.5 h [3, 9]: 327 ng/g | concentration at 1 h [3, 9]: 984 ng/g | concentration at 2 h [3, 9]: 19700 ng/g | concentration at 4 h [3, 9]: 4690 ng/g | concentration at 6 h [3, 9]: 8440 ng/g | concentration at 8 h [3, 9]: 11900 ng/g | concentration at 12 h [3, 9]: 4790 ng/g | concentration at 24 h [3, 9]: 350 ng/g | concentration at 0.5 h [3, 10]: 6.1 ng/mL | concentration at 1 h [3, 10]: 1.8 ng/mL | concentration at 2 h [3, 10]: 1.9 ng/mL | concentration at 4 h [3, 10]: 0 ng/mL | concentration at 6 h [3, 10]: 0 ng/mL | concentration at 8 h [3, 10]: 0 ng/mL | concentration at 12 h [3, 10]: 0 ng/mL | concentration at 24 h [3, 10]: 0 ng/mL | Systemic plasma exposure ([3]; plasma): very low | Colonic exposure AUC0-24 h ([3]; total colon): 132,979 h·ng/g | solubility thermodynamic at 24 h ([5]; Run 1, read-out: pH 6.5 FaSSCoF Solubility, Run 1): 40 µg/mL (≈ 81.5 µM) | solubility thermodynamic at 24 h ([5]; Run 2, read-out: pH 6.5 FaSSCoF Solubility, Run 2): 20 µg/mL (≈ 40.8 µM) | Kd [6]: 0.098 nM | Kd [7]: 0.62 nM | Kd [8]: 0.052 nM
Structure (SMILES): CCc1cc(O)c(F)cc1-c1ccc2c(-c3nc4c([nH]3)CCN(C(=O)N3CCOCC3)C4)n[nH]c2c1 [Example 1, (2-(6-(2-Ethyl-5-fluoro-4-hydroxyphenyl)-1H-indazol-3-yl)-1,4,6,7-tetrahydro-5H-imidazo[4,5-c]pyridin-5-yl)(morpholino)methanone]
IC50 [1]: 3.6 nM | % viability at 1 μg/mL [4]: 40%
